Measurements: patent US8129527B2, “Analogs of dehydrophenylahistins and their therapeutic use” (Nereus Pharmacuticals, Inc., priority 2006, dated 2012)
Marks after values point to notes of the source that are not given here.

system: HT-29 human colon cells; test: Tumor cytotoxicity assay, resazurin fluorescence, 48 h (Example 6); assay type: cell-based; conditions: Homo sapiens, HT-29, read-out: EC50 HT-29, Table 3, cells printed in μM

With `COc1cc(/C=c2\[nH]c(=O)/c(=C/c3nc[nH]c3C(C)(C)C)[nH]c2=O)cc(OC)c1OC` [KPU-11, tBu-ΔPLH-3,4,5-triOMe] as the compound, how does the EC50 read?
Its EC50 is over 20 µM.

same assay, conditions: in words

For `COc1cc(/C=c2\[nH]c(=O)/c(=C/c3nc[nH]c3C(C)(C)C)[nH]c2=O)cc(OC)c1OC` [KPU-11, tBu-ΔPLH-3,4,5-triOMe], which “cytotoxic activity against HT-29 cells” value is on record?
The value was “also showed activity”.

system: HT-29 human colon tumor; test: HT-29 Human Colon Tumor Xenograft Model; assay type: in vivo; conditions: Colon HT-29 (3 studies); CPT-11 Days 1, 8, 15 alone
Description: Selected novel compounds were administered as monotherapy via the intraperitoneal (i.p.) route at the doses indicated for the individual study; for the combination studies the selected reference chemotherapy agents were injected 15-30 min prior to the compound.
Saline dilutions are used to achieve the injection concentrations used for the reference compounds.
Animals were implanted subcutaneously (s.c.) by trocar with fragments of HT-29 tumors harvested from s.c. growing tumors in nude mice hosts. When the tumor size reached 5 mm×5 mm (about 10-17 days) the animals were matched into treatment and control groups. Mice were weighed twice weekly and tumor measurements were obtained using calipers twice weekly, starting on Day 1. The tumor measurements were converted to estimated mg tumor weight using the formula (W^2×L)/2. When the estimated tumor weight of the control group reached an average of 1000 mg the mice were weighed, sacrificed and the tumor removed.

Which “Tumor Growth Inhibition (%) Reference Agent” value does the source give for `CCc1c2c(nc3ccc(OC(=O)N4CCC(N5CCCCC5)CC4)cc13)-c1cc3c(c(=O)n1C2)COC(=O)[C@]3(O)CC` [CPT-11, Irinotecan, reference compound] here?
Its value is 37 ± 3%.

What about the “Tumor Regression (#/total) Reference Agent” value of the same compound?
The value was 0/30.

same assay, conditions: Study 2139; CPT-11 alone 100 ip qwx3

With `CCc1c2c(nc3ccc(OC(=O)N4CCC(N5CCCCC5)CC4)cc13)-c1cc3c(c(=O)n1C2)COC(=O)[C@]3(O)CC` [CPT-11, Irinotecan, reference compound] as the compound, how does the “Chemotherapeutic Agent Result TGI %” value read?
Its value is 32.7%.

same assay, conditions: Study 2164; CPT-11 alone 100 ip qwx3

For `CCc1c2c(nc3ccc(OC(=O)N4CCC(N5CCCCC5)CC4)cc13)-c1cc3c(c(=O)n1C2)COC(=O)[C@]3(O)CC` [CPT-11, Irinotecan, reference compound], which “Chemotherapeutic Agent Result TGI %” value is on record?
Its value is 39* %.

same assay, conditions: Study 2288; CPT-11 alone 100 ip qwx3

Which “Chemotherapeutic Agent Result TGI %” value does the source give for `CCc1c2c(nc3ccc(OC(=O)N4CCC(N5CCCCC5)CC4)cc13)-c1cc3c(c(=O)n1C2)COC(=O)[C@]3(O)CC` [CPT-11, Irinotecan, reference compound] here?
The value was 36.5* %.

same assay, conditions: study of KPU-2, KPU-35 and t-butyl-phenylahistin +/- CPT-11

For `CCc1c2c(nc3ccc(OC(=O)N4CCC(N5CCCCC5)CC4)cc13)-c1cc3c(c(=O)n1C2)COC(=O)[C@]3(O)CC` [CPT-11, Irinotecan, reference compound], which “TGI vs NCI criterion” value is on record?
Its value is “did not reach this level”.

system: Trichophyton rubrum; test: Antifungal susceptibility testing, broth dilution (MIC/MFC); assay type: cell-based; conditions: Trichophyton species
Description: Specifically, disclosed compounds were evaluated alongside commercially available microtubulin inhibitors as well as recognized antifungal agents.
Microorganisms against which these compounds were tested included: Candida albicans, Candida glabrata, Aspergillus fumigatus, Trichophyton rubrum, Trichophyton mentagrophytes, Epidermophyton floccosum. With the exception of Candida glabrata (one isolate), two isolates of each species were tested.
The minimum lethal concentration (MLC) was determined by plating […] from the MIC concentration and each concentration above the MIC. […] When a MIC was obtained, a minimum fungicidal concentration (MFC) was determined to assess the fungistatic/fungicidal nature of the compound.

Which “antifungal potency compared with griseofulvin” value does the source give for `COc1cc(/C=c2\[nH]c(=O)/c(=C/c3nc[nH]c3C(C)(C)C)[nH]c2=O)cc(OC)c1OC` [KPU-11, tBu-ΔPLH-3,4,5-triOMe] here?
The value was “equivalent in potency or in some cases more potent than griseofulvin”.

Which “antifungal potency compared with griseofulvin” value does the source give for `CC(C)(C)c1[nH]cnc1/C=C1\NC(=O)[C@H](Cc2ccccc2)NC1=O` [t-butylphenylahistin] here?
Its value is “equivalent in potency or in some cases more potent than griseofulvin”.

system: not given; test: not given; conditions: not given

Which melting point does the source give for `CC(C)(C)c1ocnc1/C=c1\[nH]c(=O)/c(=C/c2cccc(Cl)c2)[nH]c1=O` here?
The melting point was 171 to 173 °C.

For `Cc1ccccc1/C=c1\[nH]c(=O)/c(=C/c2ncoc2C(C)(C)C)[nH]c1=O`, which melting point is on record?
The melting point was 177 to 179 °C.

For `CC(C)(C)c1ocnc1/C=c1\[nH]c(=O)/c(=C/c2ccc(Br)o2)[nH]c1=O`, which melting point is on record?
Its melting point is 184 to 186 °C.

With `CC(C)(C)c1ocnc1/C=c1\[nH]c(=O)/c(=C/c2cccs2)[nH]c1=O` as the compound, how does the melting point read?
The melting point was 211 to 213 °C.

For `Cc1oc(-c2ccccc2)cc1/C=c1\[nH]c(=O)/c(=C/c2ncoc2C(C)(C)C)[nH]c1=O`, which melting point is on record?
Its melting point is 218 to 220 °C.

For `CC(C)(C)c1ocnc1/C=c1\[nH]c(=O)/c(=C/c2ccc3nsnc3c2)[nH]c1=O`, which melting point is on record?
The melting point was 234 to 236 °C.

Which melting point does the source give for `CC(C)(C)c1ocnc1/C=c1\[nH]c(=O)/c(=C/c2cc(F)cc3c2OCOC3)[nH]c1=O` here?
The melting point was 189 to 191 °C.

With `CC(C)(C)c1ocnc1/C=c1\[nH]c(=O)/c(=C/c2cccc(C(=O)c3ccccc3)c2)[nH]c1=O` as the compound, how does the melting point read?
The melting point was 151 to 153 °C.

With `CC(C)(C)c1ocnc1/C=c1\[nH]c(=O)/c(=C/c2cccc(F)c2)[nH]c1=O` [KPU-202, 3-{(Z)-1-[5-(tert-Butyl)-1H-4-oxazolyl]methylidene}-6-[(Z)-1-(3-fluorophenyl)methylidene]-2,5-piperazinedione] as the compound, how does the melting point read?
Its melting point is 143 to 145 °C.

For `CC(C)(C)c1ocnc1/C=c1\[nH]c(=O)/c(=C/c2ccccc2Cl)[nH]c1=O` [KPU-204, 3-{(Z)-1-[5-(tert-Butyl)-1H-4-oxazolyl]methylidene}-6-[(Z)-1-(2-chlorophenyl)methlidene]-2,5-piperazinedione], which melting point is on record?
The melting point was 166 to 168 °C.

For `COc1cc(/C=c2\[nH]c(=O)/c(=C/c3ncoc3C(C)(C)C)[nH]c2=O)cc(OC)c1` [KPU-208, 3-{(Z)-1-[5-(tert-Butyl)-1H-4-oxazolyl]methylidene}-6-[(Z)-1-(3,5-dimethoxyphenyl)methlidene]-2,5-piperazinedione], which melting point is on record?
The melting point was 171 to 173 °C.

Which melting point does the source give for `CC(C)(C)c1ocnc1/C=c1\[nH]c(=O)/c(=C/c2cc(Cl)cc(Cl)c2)[nH]c1=O` [KPU-209, 3-{(Z)-1-[5-(tert-Butyl)-1H-4-oxazolyl]methylidene}-6-[(Z)-1-(3,5-dichlorophenyl)methlidene]-2,5-piperazinedione] here?
The melting point was 202 to 204 °C.

With `CCOc1cccc(/C=c2\[nH]c(=O)/c(=C/c3ncoc3C(C)(C)C)[nH]c2=O)c1` [KPU-210, 3-{(Z)-1-[5-(tert-Butyl)-1H-4-oxazolyl]methylidene}-6-[(Z)-1-(3-ethoxyphenyl)methlidene]-2,5-piperazinedione] as the compound, how does the melting point read?
Its melting point is 124 to 126 °C.

With `CC(C)(C)c1ocnc1/C=c1\[nH]c(=O)/c(=C/c2cccc(Br)c2)[nH]c1=O` [KPU-212, 3-{(Z)-1-[5-(tert-Butyl)-1H-4-oxazolyl]methylidene}-6-[(Z)-1-(3-bromophenyl)methlidene]-2,5-piperazinedione] as the compound, how does the melting point read?
Its melting point is 170 to 172 °C.

For `CC(C)(C)c1ocnc1/C=c1\[nH]c(=O)/c(=C/c2ccccc2F)[nH]c1=O` [KPU-214, 3-{(Z)-1-[5-(tert-Butyl)-1H-4-oxazolyl]methylidene}-6-[(Z)-1-(2-fluorophenyl)methlidene]-2,5-piperazinedione], which melting point is on record?
Its melting point is 170 to 172 °C.

Which melting point does the source give for `CC(C)(C)c1ocnc1/C=c1\[nH]c(=O)/c(=C/c2ccccc2[N+](=O)[O-])[nH]c1=O` [KPU-215, 3-{(Z)-1-[5-(tert-Butyl)-1H-4-oxazolyl]methylidene}-6-[(Z)-1-(2-nitrophenyl)methlidene]-2,5-piperazinedione] here?
The melting point was 149 to 151 °C.

With `CC(C)(C)c1ocnc1/C=c1\[nH]c(=O)/c(=C/c2cccc(OC(F)(F)F)c2)[nH]c1=O` [KPU-216, 3-{(Z)-1-[5-(tert-Butyl)-1H-4-oxazolyl]methylidene}-6-[(Z)-1-(3-trifluoromethoxyphenyl)methlidene]-2,5-piperazinedione] as the compound, how does the melting point read?
The melting point was 187 to 189 °C.

For `CC(C)(C)c1ocnc1/C=c1\[nH]c(=O)/c(=C/c2ccoc2)[nH]c1=O` [KPU-217, 3-{(Z)-1-[5-(tert-Butyl)-1H-4-oxazolyl]methylidene}-6-[(Z)-1-(3-furyl)methlidene]-2,5-piperazinedione], which melting point is on record?
The melting point was 164 to 166 °C.

With `Cc1ccsc1/C=c1\[nH]c(=O)/c(=C/c2ncoc2C(C)(C)C)[nH]c1=O` [KPU-219, 3-{(Z)-1-[5-(tert-Butyl)-1H-4-oxazolyl]methylidene}-6-[(Z)-1-(3-methyl-2-thienyl)methlidene]-2,5-piperazinedione] as the compound, how does the melting point read?
The melting point was 142 to 144 °C.

With `COc1ccccc1/C=c1\[nH]c(=O)/c(=C/c2ncoc2C(C)(C)C)[nH]c1=O` [KPU-224, 3-{(Z)-1-[5-(tert-Butyl)-1H-4-oxazolyl]methylidene}-6-[(Z)-1-(2-methoxyphenyl)methlidene]-2,5-piperazinedione] as the compound, how does the melting point read?
The melting point was 151 to 153 °C.

For `CC(C)(C)c1ocnc1/C=c1\[nH]c(=O)/c(=C/c2ccsc2)[nH]c1=O` [KPU-226, 3-{(Z)-1-[5-(tert-Butyl)-1H-4-oxazolyl]methylidene}-6-[(Z)-1-(3-thienyl)methlidene]-2,5-piperazinedione], which melting point is on record?
The melting point was 155 to 157 °C.

Which melting point does the source give for `CC(C)(C)c1ocnc1/C=c1\[nH]c(=O)/c(=C/CCc2ccccc2)[nH]c1=O` [KPU-228, 3-{(Z)-1-[5-(tert-Butyl)-1H-4-oxazolyl]methylidene}-6-[(Z)-1-(phenylpropyl)methlidene]-2,5-piperazinedione] here?
Its melting point is 180 to 182 °C.

With `CCOc1ccc2ccccc2c1/C=c1\[nH]c(=O)/c(=C/c2ncoc2C(C)(C)C)[nH]c1=O` [KPU-229, 3-{(Z)-1-[5-(tert-Butyl)-1H-4-oxazolyl]methylidene}-6-[(Z)-1-(2-ethoxy-1-naphthyl)methlidene]-2,5-piperazinedione] as the compound, how does the melting point read?
The melting point was 201 to 203 °C.

Which melting point does the source give for `COc1ccc2ccccc2c1/C=c1\[nH]c(=O)/c(=C/c2ncoc2C(C)(C)C)[nH]c1=O` [KPU-230, 3-{(Z)-1-[5-(tert-Butyl)-1H-4-oxazolyl]methylidene}-6-[(Z)-1-(2-methoxy-1-naphthyl)methlidene]-2,5-piperazinedione] here?
The melting point was 234 to 236 °C.

Which melting point does the source give for `CC(C)(C)c1ocnc1/C=c1\[nH]c(=O)/c(=C/c2c3ccccc3cc3ccccc23)[nH]c1=O` [KPU-231, 3-{(Z)-1-[5-(tert-Butyl)-1H-4-oxazolyl]methylidene}-6-[(Z)-1-(9-anthryl)methlidene]-2,5-piperazinedione] here?
Its melting point is 274 to 276 °C.

Which melting point does the source give for `CC(C)(C)c1ocnc1/C=c1\[nH]c(=O)/c(=C/c2ccc(-c3cccs3)s2)[nH]c1=O` [KPU-234, 3-{(Z)-1-[5-(tert-Butyl)-1H-4-oxazolyl]methylidene}-6-[(Z)-1-(2,2′-bithienyl)methlidene]-2,5-piperazinedsione] here?
Its melting point is 212 to 214 °C.

With `CC(C)(C)c1ocnc1/C=c1\[nH]c(=O)/c(=C/c2cc(F)cc(F)c2F)[nH]c1=O` [KPU-235, 3-{(Z)-1-[5-(tert-Butyl)-1H-4-oxazolyl]methylidene}-6-[(Z)-1-(2,3,5-trifluorophenyl)methylidene]-2,5-piperazinedione] as the compound, how does the melting point read?
Its melting point is 185 to 187 °C.

Which melting point does the source give for `CC(C)(C)c1ocnc1/C=c1\[nH]c(=O)/c(=C/c2c(F)c(F)cc(F)c2F)[nH]c1=O` [KPU-236, 3-{(Z)-1-[5-(tert-Butyl)-1H-4-oxazolyl]methylidene}-6-[(Z)-1-(2,3,5,6-tetrafluorophenyl)methlidene]-2,5-piperazinedione] here?
The melting point was 194 to 196 °C.

For `CC(C)(C)c1ocnc1/C=c1\[nH]c(=O)/c(=C/c2c(F)ccc(F)c2F)[nH]c1=O` [KPU-238, 3-{(Z)-1-[5-(tert-Butyl)-1H-4-oxazolyl]methylidene}-6-[(Z)-1-(2,36-trifluorophenyl)methlidene]-2,5-piperazinedione], which melting point is on record?
The melting point was 212 to 214 °C.

Which melting point does the source give for `CC(C)(C)c1ocnc1/C=c1\[nH]c(=O)/c(=C/c2cn(S(=O)(=O)c3ccccc3)c3ccccc23)[nH]c1=O` [KPU-239, 3-{(Z)-1-[5-(tert-Butyl)-1H-4-oxazolyl]methylidene}-6-[(Z)-1-(phenylsulfonyl-3-indolyl)methlidene]-2,5-piperazinedione] here?
The melting point was 133 to 135 °C.
